The values that follow come from patent publication US11357774B2, “Use of a quinoline sulfonyl compound for treatment of inflammation, inflammatory disorders, autoimmune disorders and malaria” (priority 2019, dated 2022).

SMILES strings stand for the structures. Like-named read-outs stand apart in the source and are kept apart here.

Series [1] deals with IL-1β, TNF-α, IL-6 and IL-8 secretion in THP-1 cells. Nature of the series: Cytokine secretion in LPS-stimulated THP-1 cells (ELISA). Type of series: cell-based, human. The settings on record: THP-1, LPS 5 μg/mL, 6 hours; VR23 0.5-6 μM, BTZ 6 nM, CFZ 1 nM, DEX 2 μM. Here is the method: For comparison, BTZ (6 nM), CFZ (1 nM), and DEX (2 μM) were also included. *, **, and *** are p<0.05, p<0.01, and p<0.001, respectively, which denote a significant difference from the LPS-only group. The mean±SEM (n=3) values were determined by a Dunnett's test.
(§1) The enzyme-linked immunosorbent assay (ELISA) is a quantitative measurement based on sandwich-based enzyme linking, using a protein-specific capture antibody to determine the levels of single or multiple chemokines and cytokines.
Data shown in FIG. 11 are the results of experiments carried out to investigate VR23's effect on the levels of inflammatory cytokines. […] For comparison, BTZ (6 nM), CFZ (1 nM) and DEX (2 μM) were also included. The levels of cytokine secreted in cell culture supernatants were measured by a single-analyte ELISA. The IC50 value of VR23 is 3 μM and the concentrations of BTZ, CFZ and DEX used are their respective IC50 values.

The subject of another series is THP-1 monocytic cells. Nature of the series: Sulforhodamine B (SRB) assay, IC50 on THP-1 cells. Type of series: cell-based, human. The settings on record: read-out: IC50. Here is the method:
(§2) The sulforhodamine B (SRB) assay^21 was used to determine the drug concentration that half of the cell growth/viability is inhibited (IC50). Cells were cultured in 96-well plates, with 5,000 cells in 100 μL of culture medium per well. The rest of the protocol was the same as described previously^22,23.
(§3) Data shown in Table 1 are IC50 values of VR23 and other compounds, which were determined using sulforhodamine B (SRB) assays on immunologically relevant cells (THP-1, SW-982 and PBMC). […] Two well-known proteasome inhibitors, BTZ and CFZ, were included for comparison since VR23 is also a proteasome inhibitor, albeit targeting different subunits^2. The widely used anti-inflammatory DEX was included, also for comparison.
(§4) THP-1, SW982 and PBMC cells (5,000 cells/well) were treated with each compound for 48 hours. The IC50, the drug concentration reducing cell growth/viability by 50%, was determined by a dose-response four-parameter curve (generated with GraphPad Prism V. 4.02) formed by 10 two-fold dilutions (n=3).

For series [2], the system named is IL-6 and TNF-α secretion in human PBMC. Nature of the series: IL-6 and TNF-α in PHA-p-stimulated human PBMC (ELISA). Type of series: cell-based. The settings on record: PHA-p 10 μg/mL, 6 hours. Here is the method:
(§5) The values presented are the mean±SEM (n=2).
as §1
Data in FIG. 14 show the levels of IL-6 (upper plot) and TNF-α (lower plot) in human PBMC (1×10^6/mL cells) stimulated with 10 μg/mL phytohemagglutinin-p (PHA-p) (10 μg/mL) for 6 hours, in the absence (control) or presence of varying concentrations of VR23 (0.38, 0.75, 1.5, 3 or 6 μM) or BTZ (6.25, 12.5, 25 or 50 nM). The measurement was carried out with a single-analyte ELISA.

The next series deals with PBMC cells. Nature of the series: Sulforhodamine B (SRB) assay, IC50 on PBMC. Type of series: cell-based, human. The settings on record: read-out: IC50. Here is the method: as §2, §3, §4
For series [3], the system named is IL-8 secretion in THP-1 cells. Nature of the series: IL-8 secretion in TNF-α-stimulated THP-1 cells (ELISA). Type of series: cell-based, human. The following applies: THP-1, TNF-α 10 ng/mL, 6 hours; VR23 at IC50 concentration (between 2 and 4 μM), BTZ 6 nM, CFZ 1 nM. Here is the method:
For comparison, BTZ (6 nM), CFZ (1 nM), and DEX (2 μM) were also included. *** is p<0.001, which denotes a significant difference from the TNF-α-only group, determined by a Dunnett's test. The values presented are the mean±SEM (n=3).
as §1
The data in FIG. 12 show the levels of IL-8 secreted in the THP-1 culture medium in response to TNF-α alone (10 ng/mL) or in combination with varying concentrations (0.5, 1.0, 2, 4 or 6 μM) of VR23. For comparison, BTZ (6 nM), CFZ (1 nM) and DEX (2 μM) were also included. The measurement time was 6-hour post-stimulation. The measurement was carried out with a single-analyte ELISA.

Series [4] has as its system SW-982 synovial cell line. Nature of the series: Sulforhodamine B (SRB) assay, IC50 on SW-982 cells. In kind it is cell-based. The following applies: Homo sapiens; SW982 cells, 48 hours, SRB; read-out: IC50. Here is the method:
as §2, §3, §4

The subject of series [5] is IL-6 secretion in HFLS-RA cells. Nature of the series: IL-6 secretion in stimulated HFLS-RA cells (ELISA). In kind it is cell-based, human. The settings on record: HFLS-RA, IL-1β 10 ng/mL, 6 hours; VR23 2.5-10 μM, HCQ 15 or 30 μM. Here is the method: (§6) The mean±SEM (n=3) values were determined by a Dunnett's test.
as §5, §1
(§7) This finding was extended to human cells relevant to autoimmune diseases. Human fibroblast-like synoviocytes (HFLS) are present in the synovial fluid of joint capsules and produce harmful molecules that contribute to joint destruction and the exacerbation of the disease in rheumatoid arthritis patients. […] The cells were then stimulated with IL-1β (FIG. 16) or LPS (FIG. 17), in the absence (control; IL-1β only) or presence of VR23 or HCQ. HCQ was included for comparison because it is often used to treat rheumatoid arthritis. […] For “VR23 only” samples, 5 μM VR23 was used. Fifty thousand HFLS cells per mL were used for the experiment. Cytokine levels in cell culture supernatants were determined by a single-analyte ELISA. […] Fifty thousand HFLS cells per mL were used for the experiment. The cytokine secretion was measured in cell culture supernatants by a single-analyte ELISA.

Series [6] deals with human fibroblast-like synoviocytes from rheumatoid arthritis patients (HFLS-RA). Nature of the series: Viability test, HFLS-RA cells. Type of series: cell-based. The following applies: 6 hours, IL-1β 10 ng/mL, VR23 1.25-5.0 μM, HCQ 7.5-30 μM. The protocol: The values presented are the mean±SEM (n=3).
The CCK-8 assay was used to count viable cells under the various treatment conditions. Briefly, cells were cultured in 11 columns of a 96-well clustered plate, with 5,000 cells in 100 μL of culture medium per well, excluding one column for a media-only control. The plate was incubated overnight at 37° C. in the humidified conditions, followed by treatment with test compounds diluted in the culture medium (10 μL). Each column was treated with a different condition so that each treatment could have 8 repeats. […] The absorbance was measured using an automatic plate reader (Synergy H4 Hybrid Multi-Mode Microplate Reader, BioTek, Montreal, Canada) at 450 nm wavelength. The cell viability of each treatment sample was determined by using the following equation (%)=(Abstrtmt-Absmedia)/(AbsuT-Absmedia)*100, where Abstrtmt is the absorbance value of cells with the various treatment conditions; Absmedia is the absorbance of the well containing media only; AbsuT is the absorbance of the wells with untreated cells.
This finding was extended to human cells relevant to autoimmune diseases. […] Cytokine levels in cell culture supernatants were determined by a single-analyte ELISA. […] The cytokine secretion was measured in cell culture supernatants by a single-analyte ELISA.

In series [7] the test system is IL-6 secretion in HFLS-N cells. Nature of the series: IL-6 secretion in stimulated HFLS-N cells (ELISA). The following applies: IL-1β 10 ng/mL, 6 hours, VR23 2.5-10 μM, HCQ 15 or 30 μM. Type of series: cell-based, human. Here is the method:
as §6, §5, §1, §7

For series [8], the system named is IL-6 secretion in SW-982 synovial cells. Nature of the series: IL-6 secretion in IL-1β-stimulated SW-982 synovial cells (ELISA). Type of series: cell-based, human. The settings on record: SW-982, IL-1β 1 ng/mL, 6 hours; VR23 10 μM, HCQ 60 μM. Here is the method: The mean±SEM (n=2) values were determined by a Dunnett's test.
as §1
The measurement was carried out with a single-analyte ELISA. […] While not wishing to be limited by theory, cytokine IL-6 is strongly implicated to the progress of rheumatoid arthritis^29.

For `CC(C)C[C@H](NC(=O)[C@H](Cc1ccccc1)NC(=O)c1cnccn1)B(O)O` [BTZ, bortezomib, reference compound], the “levels of inflammatory cytokines IL-1β, TNF-α, IL-6, IL-8” value in series [1] was “do not”. Moreover, the IC50 is 5.91 ± 0.34 nM in the series with THP-1 monocytic cells (48 hours); 6 nM in the series with THP-1 monocytic cells (Homo sapiens, THP-1, 48 h); 5.86 ± 0.3 nM with PBMC cells (48 hours); 6 nM with PBMC cells (Homo sapiens, 48 h). Besides, the “PHA-induced IL-6” value in series [2] (VR23 1.5 μM, BTZ 6 nM) is reported as “reduced the level of IL-6”. The “PHA-induced TNF-α” value in series [2] (VR23 3.0 μM, BTZ 4× the IC50 dose) is “largely ineffective in reducing the level of TNF-α”. Further, in [3], the IL-8 secretion entry is “substantially reduced IL-8”.

For `CC(C)C[C@H](NC(=O)[C@H](CCc1ccccc1)NC(=O)CN1CCOCC1)C(=O)N[C@@H](Cc1ccccc1)C(=O)N[C@@H](CC(C)C)C(=O)[C@@]1(C)CO1` [CFZ, carfilzomib, reference compound], in [1], the “levels of inflammatory cytokines IL-1β, TNF-α, IL-6, IL-8” value is “do not”. For the same compound, the IC50 in the series with THP-1 monocytic cells (48 hours) amounted to 1.01 ± 0.11 nM; with THP-1 monocytic cells (Homo sapiens, THP-1, 48 h), 1 nM. In addition, the IL-8 secretion result in series [3] is listed as “not effective at all”.

In the case of `C[C@@H]1C[C@H]2[C@@H]3CCC4=CC(=O)C=C[C@]4(C)[C@@]3(F)[C@@H](O)C[C@]2(C)[C@@]1(O)C(=O)CO` [DEX, Dexamethasone], the concentration for half-maximal inhibition (IC50) in the series with THP-1 monocytic cells (48 hours) is 2070 ± 67 nM; in the series on THP-1 monocytic cells (Homo sapiens, THP-1, 48 h), 2000 nM.

`CCN(CCO)CCCC(C)Nc1ccnc2cc(Cl)ccc12` (stereo not shown) [HCQ, hydroxychloroquine, reference compound]: in series [4], the half-inhibitory concentration (IC50) came to 28200 nM. In addition, the “IL-6 secretion, dose dependence” value in series [5] and in [7] was “decreases in a dose dependent manner” in each case. In addition, the cell viability entry in [6] is “none of the conditions examined significantly affected the viability”. In addition, the “secretion of IL-6” value in series [8] is on record as “comparable”.
